Reference: ChEMBL document CHEMBL5625247, “Tetrahydro-β-carboline derivatives as potent histone deacetylase 6 inhibitors with broad-spectrum antiproliferative activity” (Eur J Med Chem, 2023)
Activity calls are given as the source filed them. The calls are words filed in the database; no cut-off is given here.

Legend:
Histone deacetylase 1 = Histone deacetylase 1 (Homo sapiens, UniProt Q13547); experiment: Inhibition of HDAC1 (unknown origin) expressed in baculovirus infected in Sf9 cells using RHKKAc as substrate at 500 nM preincubated for 5 to 10 mins followed by substrate addition measured after 2 hrs by fluorescence based assay relative to control; conditions: time 5-130 min
Histone deacetylase 11 = Histone deacetylase 11 (Homo sapiens, UniProt Q96DB2); experiment: Inhibition of HDAC11 (unknown origin) expressed in baculovirus infected in Sf9 cells using RHKKAc as substrate preincubated for 5 to 10 mins followed by substrate addition measured after 2 hrs by fluorescence based assay
Histone deacetylase 9 = Histone deacetylase 9 (Homo sapiens, UniProt Q9UKV0); experiment: Inhibition of HDAC9 (unknown origin) expressed in baculovirus infected in Sf9 cells using RHKKAc as substrate preincubated for 5 to 10 mins followed by substrate addition measured after 2 hrs by fluorescence based assay
Histone deacetylase 5 = Histone deacetylase 5 (Homo sapiens, UniProt Q9UQL6); experiment: Inhibition of HDAC5 (unknown origin) expressed in baculovirus infected in Sf9 cells using RHKKAc as substrate preincubated for 5 to 10 mins followed by substrate addition measured after 2 hrs by fluorescence based assay
[1] = AUC (0 to infinity) in Sprague-Dawley rat at 0.2 mg/kg, iv by LC-MS/MS analysis; format: ADME, organism-based; conditions: in vivo
[2] = Oral bioavailability in Sprague-Dawley rat at 3 mg/kg by LC-MS/MS analysis; format: ADME, organism-based; conditions: in vivo
[3] = Cmax in Sprague-Dawley rat at 0.2 mg/kg, iv by LC-MS/MS analysis; format: ADME, organism-based; conditions: in vivo
[4] = Clearance in Sprague-Dawley rat at 0.2 mg/kg, iv by LC-MS/MS analysis; format: ADME, organism-based; conditions: in vivo
Histone deacetylase 3 = Histone deacetylase 3 (Homo sapiens, UniProt O15379); experiment: Inhibition of HDAC3 (unknown origin) expressed in baculovirus infected in Sf9 cells using RHKKAc as substrate preincubated for 5 to 10 mins followed by substrate addition measured after 2 hrs by fluorescence based assay
[5] = target: T1, Protein deacetylase HDAC6 (Homo sapiens) (UniProt Q9UBN7); experiment: Inhibition of HDAC6 in human RPMI-8226 cells assessed as increase in alpha-tubulin acetylation at 1 to 10 uM incubated for 24 hrs by Western blot analysis; format: cell-based; conditions: dose 1-10 µM
T1 sequence (whole entry): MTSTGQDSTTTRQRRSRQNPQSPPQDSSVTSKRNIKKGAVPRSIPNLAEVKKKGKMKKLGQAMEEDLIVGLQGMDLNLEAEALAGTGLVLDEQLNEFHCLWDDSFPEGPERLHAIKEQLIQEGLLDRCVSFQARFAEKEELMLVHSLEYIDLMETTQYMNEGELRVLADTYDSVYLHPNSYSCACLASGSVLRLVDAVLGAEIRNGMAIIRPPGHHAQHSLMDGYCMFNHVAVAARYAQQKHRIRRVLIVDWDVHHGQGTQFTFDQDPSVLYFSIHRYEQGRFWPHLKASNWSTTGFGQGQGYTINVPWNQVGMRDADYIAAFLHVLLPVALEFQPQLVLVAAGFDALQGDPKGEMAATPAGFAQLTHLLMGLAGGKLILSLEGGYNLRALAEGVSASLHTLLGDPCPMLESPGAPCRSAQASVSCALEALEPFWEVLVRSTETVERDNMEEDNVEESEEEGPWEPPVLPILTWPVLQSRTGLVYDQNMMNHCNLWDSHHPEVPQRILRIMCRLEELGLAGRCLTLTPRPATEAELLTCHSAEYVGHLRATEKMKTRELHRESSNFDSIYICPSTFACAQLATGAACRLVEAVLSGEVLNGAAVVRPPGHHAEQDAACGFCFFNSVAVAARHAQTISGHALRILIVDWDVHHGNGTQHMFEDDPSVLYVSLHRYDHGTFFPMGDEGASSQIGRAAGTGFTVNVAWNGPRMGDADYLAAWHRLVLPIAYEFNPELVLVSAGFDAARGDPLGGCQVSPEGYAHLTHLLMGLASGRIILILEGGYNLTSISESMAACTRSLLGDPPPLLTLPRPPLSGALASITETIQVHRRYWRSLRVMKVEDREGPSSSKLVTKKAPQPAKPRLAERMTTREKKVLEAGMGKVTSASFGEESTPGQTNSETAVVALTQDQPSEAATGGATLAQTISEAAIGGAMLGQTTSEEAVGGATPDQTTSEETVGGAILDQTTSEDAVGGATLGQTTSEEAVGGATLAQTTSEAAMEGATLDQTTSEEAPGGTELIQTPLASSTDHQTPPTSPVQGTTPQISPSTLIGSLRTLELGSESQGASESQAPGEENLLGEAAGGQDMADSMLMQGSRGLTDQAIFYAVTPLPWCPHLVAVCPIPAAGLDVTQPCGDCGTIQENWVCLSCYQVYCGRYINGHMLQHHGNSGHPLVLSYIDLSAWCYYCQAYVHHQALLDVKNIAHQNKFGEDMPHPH

[6] = target: Polyamine deacetylase HDAC10 (Homo sapiens, UniProt Q969S8); experiment: Inhibition of HDAC10 (unknown origin) TR-FRET assay; design: species or system Sf9
[7] = target: Class 1 histone deacetylase (Homo sapiens) (UniProt Q13547+O15379+Q92769+Q9BY41); experiment: Inhibition of class 1 HDAC in human RPMI-8226 cells assessed as increase in alpha-tubulin acetylation at 1 to 10 uM incubated for 24 hrs by Western blot analysis; format: cell-based; conditions: dose 1-10 µM
Histone deacetylase 2 = Histone deacetylase 2 (Homo sapiens, UniProt Q92769); format: cell-based, Sf9
[8] = AUC (0 to last) in Sprague-Dawley rat at 0.2 mg/kg, iv by LC-MS/MS analysis; format: ADME, organism-based; conditions: in vivo
[9] = Cmax in Sprague-Dawley rat at 3 mg/kg, po by LC-MS/MS analysis; format: ADME, organism-based; conditions: in vivo
[10] = AUC (0 to infinity) in Sprague-Dawley rat at 3 mg/kg, po by LC-MS/MS analysis; format: ADME, organism-based; conditions: in vivo

Sequence of Histone deacetylase 5 (Q9UQL6 whole entry): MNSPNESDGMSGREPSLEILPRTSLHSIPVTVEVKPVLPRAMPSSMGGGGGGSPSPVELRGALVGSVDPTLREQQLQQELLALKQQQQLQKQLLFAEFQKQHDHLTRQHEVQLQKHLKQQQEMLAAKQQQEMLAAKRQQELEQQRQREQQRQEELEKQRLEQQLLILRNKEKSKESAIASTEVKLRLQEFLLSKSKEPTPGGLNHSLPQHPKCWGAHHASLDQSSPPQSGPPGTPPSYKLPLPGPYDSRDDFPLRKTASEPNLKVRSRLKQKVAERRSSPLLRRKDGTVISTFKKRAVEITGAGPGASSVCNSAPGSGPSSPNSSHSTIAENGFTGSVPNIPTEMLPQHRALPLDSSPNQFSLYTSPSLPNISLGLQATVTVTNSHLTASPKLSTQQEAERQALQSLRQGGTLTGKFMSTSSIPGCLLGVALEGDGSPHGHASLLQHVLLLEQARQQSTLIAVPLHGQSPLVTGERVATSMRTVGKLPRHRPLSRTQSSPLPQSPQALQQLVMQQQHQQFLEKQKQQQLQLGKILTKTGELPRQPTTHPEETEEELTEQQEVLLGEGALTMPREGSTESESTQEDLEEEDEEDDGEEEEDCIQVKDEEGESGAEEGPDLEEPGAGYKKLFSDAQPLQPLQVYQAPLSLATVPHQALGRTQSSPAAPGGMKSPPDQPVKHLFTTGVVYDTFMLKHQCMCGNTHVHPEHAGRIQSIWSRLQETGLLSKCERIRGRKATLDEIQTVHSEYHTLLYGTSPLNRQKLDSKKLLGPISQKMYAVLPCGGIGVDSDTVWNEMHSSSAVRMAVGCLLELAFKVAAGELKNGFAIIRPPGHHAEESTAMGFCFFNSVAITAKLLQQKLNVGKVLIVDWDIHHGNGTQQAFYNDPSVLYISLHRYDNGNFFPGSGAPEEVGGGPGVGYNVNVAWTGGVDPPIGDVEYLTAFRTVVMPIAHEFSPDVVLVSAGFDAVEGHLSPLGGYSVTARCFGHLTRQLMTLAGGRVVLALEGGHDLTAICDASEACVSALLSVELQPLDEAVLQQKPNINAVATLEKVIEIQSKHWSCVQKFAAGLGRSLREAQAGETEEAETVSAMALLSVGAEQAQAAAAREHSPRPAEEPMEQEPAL
Sequence of Polyamine deacetylase HDAC10 (Q969S8 whole entry): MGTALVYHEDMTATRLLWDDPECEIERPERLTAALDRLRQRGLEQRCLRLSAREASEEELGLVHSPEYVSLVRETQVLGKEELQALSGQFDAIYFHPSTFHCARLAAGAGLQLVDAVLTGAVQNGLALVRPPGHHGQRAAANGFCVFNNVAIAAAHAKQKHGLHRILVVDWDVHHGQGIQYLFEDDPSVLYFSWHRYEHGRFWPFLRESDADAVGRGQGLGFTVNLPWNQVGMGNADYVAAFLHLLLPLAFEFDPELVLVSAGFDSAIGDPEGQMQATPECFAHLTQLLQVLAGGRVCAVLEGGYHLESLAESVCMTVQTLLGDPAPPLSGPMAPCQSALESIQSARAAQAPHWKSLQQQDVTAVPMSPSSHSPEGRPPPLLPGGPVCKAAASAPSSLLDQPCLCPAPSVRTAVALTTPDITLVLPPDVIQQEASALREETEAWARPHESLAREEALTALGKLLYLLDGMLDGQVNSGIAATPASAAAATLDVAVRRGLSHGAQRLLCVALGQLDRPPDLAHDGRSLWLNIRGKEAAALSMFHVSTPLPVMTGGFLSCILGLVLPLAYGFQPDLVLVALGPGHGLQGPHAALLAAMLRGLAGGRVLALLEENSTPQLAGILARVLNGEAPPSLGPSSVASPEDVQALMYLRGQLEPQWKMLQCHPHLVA
Sequence of Histone deacetylase 3 (O15379 whole entry): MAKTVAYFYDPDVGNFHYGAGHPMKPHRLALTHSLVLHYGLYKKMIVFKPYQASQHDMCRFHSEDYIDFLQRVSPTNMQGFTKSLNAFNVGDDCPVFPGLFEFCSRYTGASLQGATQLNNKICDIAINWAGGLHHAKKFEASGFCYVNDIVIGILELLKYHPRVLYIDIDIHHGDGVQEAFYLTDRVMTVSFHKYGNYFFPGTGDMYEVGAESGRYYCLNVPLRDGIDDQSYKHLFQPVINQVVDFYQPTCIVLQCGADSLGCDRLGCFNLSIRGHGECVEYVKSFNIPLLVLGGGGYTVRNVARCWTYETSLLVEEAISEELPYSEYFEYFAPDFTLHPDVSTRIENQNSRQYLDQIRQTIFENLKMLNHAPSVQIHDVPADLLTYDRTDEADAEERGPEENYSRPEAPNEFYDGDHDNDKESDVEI
Sequence of Class 1 histone deacetylase (Homo sapiens) (O15379 whole entry, looked up): as the sequence (O15379 whole entry) above
Sequence of Class 1 histone deacetylase (Homo sapiens) (Q13547 whole entry, looked up): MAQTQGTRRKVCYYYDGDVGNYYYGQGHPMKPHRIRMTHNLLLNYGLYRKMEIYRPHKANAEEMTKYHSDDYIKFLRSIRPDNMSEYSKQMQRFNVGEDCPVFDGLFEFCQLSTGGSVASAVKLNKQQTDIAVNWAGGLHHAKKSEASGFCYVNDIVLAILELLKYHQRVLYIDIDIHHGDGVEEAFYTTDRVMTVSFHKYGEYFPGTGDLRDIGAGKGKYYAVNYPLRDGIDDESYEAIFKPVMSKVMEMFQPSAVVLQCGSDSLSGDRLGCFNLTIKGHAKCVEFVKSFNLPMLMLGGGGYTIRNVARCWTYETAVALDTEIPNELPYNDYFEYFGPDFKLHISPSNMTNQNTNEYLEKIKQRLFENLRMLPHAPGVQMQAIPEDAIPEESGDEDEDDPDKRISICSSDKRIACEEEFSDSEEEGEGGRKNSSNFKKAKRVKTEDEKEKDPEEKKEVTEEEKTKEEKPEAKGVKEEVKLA
Sequence of Class 1 histone deacetylase (Homo sapiens) (Q92769 whole entry, looked up): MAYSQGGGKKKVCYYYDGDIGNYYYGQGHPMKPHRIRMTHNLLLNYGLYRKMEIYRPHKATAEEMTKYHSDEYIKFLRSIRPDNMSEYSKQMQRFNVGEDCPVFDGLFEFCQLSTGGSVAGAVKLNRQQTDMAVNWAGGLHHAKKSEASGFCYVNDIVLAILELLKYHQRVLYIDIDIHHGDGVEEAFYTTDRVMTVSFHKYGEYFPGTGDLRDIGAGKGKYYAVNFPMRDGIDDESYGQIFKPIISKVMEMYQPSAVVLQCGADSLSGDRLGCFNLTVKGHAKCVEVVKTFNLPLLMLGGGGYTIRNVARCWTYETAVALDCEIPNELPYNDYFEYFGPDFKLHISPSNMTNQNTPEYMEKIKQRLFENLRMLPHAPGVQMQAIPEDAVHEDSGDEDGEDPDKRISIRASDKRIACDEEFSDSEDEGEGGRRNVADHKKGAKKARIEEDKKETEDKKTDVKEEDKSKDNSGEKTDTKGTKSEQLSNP
Sequence of Class 1 histone deacetylase (Homo sapiens) (Q9BY41 whole entry, looked up): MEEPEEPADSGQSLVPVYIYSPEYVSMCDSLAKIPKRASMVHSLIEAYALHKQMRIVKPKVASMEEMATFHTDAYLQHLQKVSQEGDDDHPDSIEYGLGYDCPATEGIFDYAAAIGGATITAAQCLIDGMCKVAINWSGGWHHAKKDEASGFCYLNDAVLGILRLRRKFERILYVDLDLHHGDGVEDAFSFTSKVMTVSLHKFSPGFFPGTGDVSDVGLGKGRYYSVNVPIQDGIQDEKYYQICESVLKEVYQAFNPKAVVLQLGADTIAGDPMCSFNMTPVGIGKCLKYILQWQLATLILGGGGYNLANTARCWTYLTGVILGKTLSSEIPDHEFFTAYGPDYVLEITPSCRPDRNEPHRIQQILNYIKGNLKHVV
Sequence of Histone deacetylase 1 (Q13547 whole entry): as the sequence (Q13547 whole entry, looked up) above
Sequence of Histone deacetylase 9 (Q9UKV0 whole entry): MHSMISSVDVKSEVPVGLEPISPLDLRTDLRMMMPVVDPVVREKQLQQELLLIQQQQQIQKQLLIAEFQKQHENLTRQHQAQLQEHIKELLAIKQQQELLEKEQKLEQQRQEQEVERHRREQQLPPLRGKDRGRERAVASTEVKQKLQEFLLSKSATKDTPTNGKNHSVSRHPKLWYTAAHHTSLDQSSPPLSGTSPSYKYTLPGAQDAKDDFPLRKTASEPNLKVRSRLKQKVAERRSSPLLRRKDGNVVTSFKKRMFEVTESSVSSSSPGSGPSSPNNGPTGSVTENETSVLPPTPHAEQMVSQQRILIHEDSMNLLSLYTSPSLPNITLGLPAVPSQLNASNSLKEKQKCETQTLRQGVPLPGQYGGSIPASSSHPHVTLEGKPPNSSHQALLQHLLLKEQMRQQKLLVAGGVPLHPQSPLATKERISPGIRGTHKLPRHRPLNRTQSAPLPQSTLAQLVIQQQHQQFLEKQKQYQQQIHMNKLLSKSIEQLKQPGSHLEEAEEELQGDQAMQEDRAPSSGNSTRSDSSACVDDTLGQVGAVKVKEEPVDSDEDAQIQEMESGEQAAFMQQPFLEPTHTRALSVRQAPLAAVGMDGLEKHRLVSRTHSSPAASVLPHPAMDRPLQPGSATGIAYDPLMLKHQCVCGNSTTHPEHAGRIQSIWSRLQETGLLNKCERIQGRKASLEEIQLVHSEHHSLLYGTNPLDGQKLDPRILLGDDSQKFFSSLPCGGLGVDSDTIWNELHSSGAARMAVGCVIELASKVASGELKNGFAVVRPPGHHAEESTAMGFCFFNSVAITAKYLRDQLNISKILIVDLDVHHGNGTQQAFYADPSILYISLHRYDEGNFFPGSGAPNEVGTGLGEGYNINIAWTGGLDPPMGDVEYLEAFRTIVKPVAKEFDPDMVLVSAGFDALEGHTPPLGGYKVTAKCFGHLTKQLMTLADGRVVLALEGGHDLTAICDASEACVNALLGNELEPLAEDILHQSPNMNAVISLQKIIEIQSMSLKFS
Sequence of Histone deacetylase 2 (Q92769 whole entry): as the sequence (Q92769 whole entry, looked up) above

| SMILES | inhibition (Histone deacetylase 1) | IC50 (Histone deacetylase 11) | IC50 (Histone deacetylase 9) | IC50 (Histone deacetylase 5) | AUC(0-inf) [1] | bioavailability [2] | Cmax [3] | clearance [4] | IC50 (Histone deacetylase 3) | inhibition [5] | IC50 [6] | inhibition [7] | IC50 (Histone deacetylase 2) | AUC(0-t) [8] | Cmax [9] | AUC(0-inf) [10] |
| --- | --- | --- | --- | --- | --- | --- | --- | --- | --- | --- | --- | --- | --- | --- | --- | --- |
| COc1ccc(CN2[C@@H](C(=O)NCc3ccc(C(=O)NO)cc3)Cc3c([nH]c4ccccc34)[C@@H]2C2CC2)cc1 | 83.4% | – | – | – | – | – | – | – | – | – | – | – | – | – | – | – |
| O=C(NO)c1ccc(CNC(=O)[C@H]2Cc3c([nH]c4ccccc34)[C@H](c3ccc(Cl)cc3)N2)cc1 | – | 2.1 µM | > 50 µM | > 50 µM | 1520 nM·h | 43.8% | 1.02 µM | 0.264 L/h/kg | 0.103 µM | Active | 0.496 µM | Active | 0.0987 µM | 1460 nM·h | 1.39 µM | 9710 nM·h |
